This is an account of results in ChEMBL document CHEMBL1140268, “Novel and potent cyclic cyanamide-based cathepsin K inhibitors” (Bioorg Med Chem Lett, 2005).

Some results are limits rather than exact numbers.

One experiment concerns the target T1, Cathepsin K (Homo sapiens, UniProt P43235).
T1 sequence (P43235 whole entry): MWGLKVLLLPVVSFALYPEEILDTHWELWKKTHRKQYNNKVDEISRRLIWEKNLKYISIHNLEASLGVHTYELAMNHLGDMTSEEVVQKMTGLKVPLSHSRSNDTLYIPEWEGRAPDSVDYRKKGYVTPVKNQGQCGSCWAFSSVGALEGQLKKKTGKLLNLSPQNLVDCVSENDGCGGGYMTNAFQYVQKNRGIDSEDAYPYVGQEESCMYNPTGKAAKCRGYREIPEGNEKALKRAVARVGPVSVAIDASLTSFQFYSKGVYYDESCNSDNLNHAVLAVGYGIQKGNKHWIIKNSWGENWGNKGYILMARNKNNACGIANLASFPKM
Description: Inhibitory concentration against human cathepsin K using 10 uM Cbz-Phe-Arg-AMC.

The next experiment has as its target Cathepsin B (Homo sapiens, UniProt P07858). Description: Inhibitory concentration against human cathepsin B using 10 uM Cbz-Phe-Arg-AMC.
A further experiment concerns the target T2, Pro-cathepsin H (Homo sapiens, UniProt P09668).
T2 sequence (P09668 whole entry): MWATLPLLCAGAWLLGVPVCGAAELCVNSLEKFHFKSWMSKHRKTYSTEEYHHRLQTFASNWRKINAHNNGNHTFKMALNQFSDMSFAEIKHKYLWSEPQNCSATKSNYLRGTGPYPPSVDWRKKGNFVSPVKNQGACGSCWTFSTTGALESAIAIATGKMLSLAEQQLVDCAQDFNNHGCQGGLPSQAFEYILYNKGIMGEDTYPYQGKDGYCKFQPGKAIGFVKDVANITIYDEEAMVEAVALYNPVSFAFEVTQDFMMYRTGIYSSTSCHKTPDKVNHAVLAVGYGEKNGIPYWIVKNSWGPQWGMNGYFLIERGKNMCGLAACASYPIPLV
Description: Inhibitory concentration against human cathepsin H using 50 uM L-Arg-beta-naphthalamide.

The target in a further experiment is Procathepsin L (Homo sapiens, UniProt P07711). Nature of the experiment: Inhibitory concentration against human cathepsin L using 5 uM Cbz-Phe-Arg-AMC.
Chain of Procathepsin L (P07711 whole entry): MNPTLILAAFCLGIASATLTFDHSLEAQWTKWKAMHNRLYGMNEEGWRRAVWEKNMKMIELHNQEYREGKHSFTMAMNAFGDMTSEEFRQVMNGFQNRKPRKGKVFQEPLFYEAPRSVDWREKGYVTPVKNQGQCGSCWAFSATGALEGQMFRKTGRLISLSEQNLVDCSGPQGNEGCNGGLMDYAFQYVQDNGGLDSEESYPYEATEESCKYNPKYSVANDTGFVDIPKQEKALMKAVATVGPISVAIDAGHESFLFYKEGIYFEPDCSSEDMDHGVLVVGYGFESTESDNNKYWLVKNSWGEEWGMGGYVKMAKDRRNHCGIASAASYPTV

With `C[C@@H](CC1CCCCC1)OC(=O)C1CCCN1C#N` (stereo not given in full), the IC50 on Cathepsin K stood at 1.8 nM; at Cathepsin B, 310 nM; against Pro-cathepsin H, 580 nM; against Procathepsin L it was 130 nM.

Compound `CC(C)(C)NC(=O)[C@H]1CCCN1C#N` had an IC50 on Cathepsin K of 8100 nM.

The compound `CC[C@@H](CC1CCCCC1)OC(=O)N1CCC(NC#N)C1` (stereo not given in full) returned an IC50 against Cathepsin K of 200 nM.

Take `CC(C)(C)OC(=O)[C@H]1CCCN1C#N`: the concentration for half-maximal inhibition (IC50) against Cathepsin K turned out to be 300 nM.

Take `COC(=O)[C@@H]1CN(C#N)C[C@H]1c1ccc(OC)c(OC2CCCC2)c1`: inhibition against Cathepsin K was half-maximal at 430 nM (IC50).

`C[C@@H](CC1CCCCC1)OC(=O)N[C@H]1CCN(C#N)C1`: the IC50 amounted to 12 nM at Cathepsin K, 680 nM at Cathepsin B, 8300 nM against Pro-cathepsin H and 81 nM at Procathepsin L.

Regarding `CC(C)(C)OC(=O)[C@@H]1CCCN1C#N`, the IC50 on Cathepsin K is 60 nM.

With `C[C@@H](CC1CCCCC1)OC(=O)C1CCN1C#N` (stereo not given in full), the IC50 amounted to 0.048 nM against Cathepsin K, 2.4 nM against Cathepsin B, 40 nM against Pro-cathepsin H and 0.71 nM against Procathepsin L.

Consider `CC(C)(C)OC(=O)N[C@@H]1CCN(C#N)C1`, for which the IC50 against Cathepsin K worked out at 200 nM.

Take `CC(C)(C)OC(=O)N[C@H]1CCN(C#N)C1`: the IC50 at Cathepsin K came out at 81 nM.

Consider `CC(C)(C)OC(=O)N1CCCN1C#N`, for which the IC50 on Cathepsin K came to 380 nM. Against the preceding compound, the IC50 is about 4.7-fold higher.

Regarding `CCCC[C@H](C=O)NC(=O)OC(C)(C)C`, the midpoint of inhibition on Cathepsin K, the IC50, lay at 51 nM. Against the preceding compound, the IC50 is about 7.5-fold lower.

`CC[C@@H](CC1CCCCC1)OC(=O)NC1CCN(C#N)C1` (stereo not given in full) displayed an IC50 on Cathepsin K of 8.9 nM.

At Cathepsin K, `CN(C(=O)[C@H]1CCCN1C#N)C(C)(C)C` had an IC50 of more than 13000 nM.

Take `CC(C)(C)OC(=O)[C@@H]1CCCCN1C#N`: the IC50 at Cathepsin K is more than 13000 nM.

`N#CN1CCCC1` [CYANO-PYRROLIDINE]: the IC50 against Cathepsin K stood at 2100 nM.
